Patent US9422238B2, “ICMT inhibitors” (National University of Singapore, priority 2012, dated 2016)
“And” between values parts separate entries of the source, which are not always exact repeats. Equal entries are not always repeated. Where two headings read alike, the source gives them in different places.

Experiments:
Icmt = Icmt (Homo sapiens, UniProt O60725); conditions: background, cited from earlier work
[1] = test system: human pancreatic cancer MIA PACA II cells; test: Cell viability (MTS); assay type: cell-based; conditions: MIA PaCa-2, Table 6, N = 2
Experimental: (§1) Human hepatocellular carcinoma HepG2 and human pancreatic cancer MIA PACA II cells were obtained from ATCC (Rockville, Md.). They were grown in DMEM (high glucose, Invitrogen) supplemented with 10% FBS, 50 μg/mL penicillin and 50 μg/mL streptomycin, 37° C., 5% CO2 until they reached 80-90% confluency, after which they were subcultured. Passage numbers were kept within 7-14 passages for both cell types.

[2] = Pharmacokinetic study, IP; assay type: in vivo, mice; conditions: for detection in plasma at late time points: IP; for half-life / AUC / Tmax / Cmax: female, mouse, plasma; for half-life: Balb/c
PC3 cells [3] = test: Cell cycle analysis by flow cytometry; assay type: cell-based, human; conditions: PC3, 48 h
Experimental: PC3 cells were seeded at 100 000 cells/mL per well in 6-well plates with media DMEM (high glucose, 10% FBS, 50 μg/mL penicillin, 50 μg/mL streptomycin) and incubated (24 h, 37° C., 5% CO2) to allow cell attachment after which they were treated with test compound (in DMEM, high glucose, 5% FBS, 50 μg/mL penicillin, 50 μg/mL streptomycin) for 48 h. Final volume of DMSO per well was 0.05% v/v. Control wells (without test compound) were similarly treated. After the specified time, supernatant in the well was collected; the cell pellet was trypsinized, combined with the supernatant and pelleted by centrifugation (150 g, 5 min). After rinsing the pellet twice with ice-cold 1×PBS, the cells were suspended in 0.3 mL PBS, to which was added dropwise and with gentle shaking, cold ethanol (0.7 mL) to give a final concentration of 70% ethanol. The cell sample was then kept at 4° C. overnight after which it was centrifuged (150 g, 5 min), the supernatant was removed, the pellet rinsed with cold PBS and re-suspended in a solution of 100 μg/mL propidium iodide (PI, Sigma Aldrich, Singapore) and 0.1 mg/mL ribonuclease A (Sigma Aldrich, Singapore) in PBS (500 μL). The suspension was kept in the dark for 1 h, 25° C. (room temperature) before being analyzed for distribution in the G1,S, G2/M phases on a FCS500 flow cytometer (Beckman Coulter, CA) using the FlowJo® software (http: http://www.flowjo.com/) Each test compound was evaluated at 4 concentrations with 2 repeats per concentration.

PC3 cells [4] = test: Immunofluorescence analysis of LC3 aggregation; assay type: cell-based, human; conditions: PC3, 48 h
Experimental: Cover slips were placed into the base of each well in a 24-well plate. PC3 cells were seeded at 10 000 cells/mL per well in media (DMEM Hi-glucose, 10% FBS, 50 μg/mL penicillin, 50 μg/mL streptomycin) and incubated for 24 h. After this time, cells were attached as a layer onto the exposed face of the cover slip. The media was carefully removed from the well without disrupting the cell layer on the cover slip. Test compound in DMEM (high glucose, 5% FBS) was added and incubated for 24 h or 48 h. DMSO concentration was kept at 0.05% per well, including control wells. At the end of the incubation period, media was removed, wells were washed thrice with PBS, followed by addition of chilled PBST (200 μL) per well for 10 minutes to permeabilize the cells. Cells were then fixed with 4% paraformaldehyde (300 μL), incubated for 15 minutes, and washed with cold PBS (3 times) to remove the fixing solution. To the cell layer fixed on the cover slip in the well was added 100 μL of anti-LC3 in PBST (1:1000). The plates were kept at 4° C. overnight after which each well was washed 3× with cold PBS. Rhodamine Red-X® secondary antibody (Jackson Immunoresearch Laboratories, West Grove, Pa.) was added, incubated (2 h, 25° C.) and removed by washing with PBS (3 times). The cover slips were carefully removed from the wells and mounted onto glass slides and sealed with nail polish. […]

[5] = test system: HepG2, MIA PACA II, MDA-MB-231 and PC3 cells; test: Cell viability on panel of 4 malignant cell lines; assay type: cell-based; conditions: Homo sapiens, MDA-MB-231, PC3, read-out: IC50 values, range over the malignant cell lines
Experimental: Determinations were made in duplicates or triplicates.
Cell viability was determined from the expression:
as §1

[6] = Parallel Artificial Membrane Permeability Assay (PAMPA); conditions: for Papp at 16 h: PAMPA, pH 7.4
Experimental: Briefly, determinations were carried out on MultiScreen-IP PAMPA assay (donor) plates (MAIPNTR10) and MultiScreen Receiver Plates (MATRNPS50) from Millipore Corporation (USA) with 1% lecithin (L-α-phosphatidylcholine from lyophilized powder of egg yolk, Sigma Aldrich, USA) in dodecane (ReagentPlus®, Sigma Aldrich, USA) as lipid barrier. 5 μL of 1% lecithin in dodecane was dispensed into the wells of the donor plates. […] The mobile phase was Milli-Q water (0.1% formic acid) and acetonitrile (0.1% formic acid), run on gradient.
Pe was obtained from Equation 1:
[formula] Where VA and VD are the volumes of acceptor (cm^3) and donor (cm^3) wells respectively, A is the area of the surface area of the membrane (0.24 cm^2), t is the permeation time (s); S is the fraction of sample remaining in the donor and acceptor wells after permeation time and is determined from Equation 2, CA and CD are the concentrations (μM) of test/reference compound in acceptor and donor wells respectively.
The Pe of each compound was obtained from at least 3 separate experiments using no less than 2 different stock solutions. For each independent determination, triplicates (3 wells) were run for each compound.

[7] = Balb/c mice, 20 mg/kg IP, 20 mg/kg

Chain of Icmt (O60725 whole entry, species assumed): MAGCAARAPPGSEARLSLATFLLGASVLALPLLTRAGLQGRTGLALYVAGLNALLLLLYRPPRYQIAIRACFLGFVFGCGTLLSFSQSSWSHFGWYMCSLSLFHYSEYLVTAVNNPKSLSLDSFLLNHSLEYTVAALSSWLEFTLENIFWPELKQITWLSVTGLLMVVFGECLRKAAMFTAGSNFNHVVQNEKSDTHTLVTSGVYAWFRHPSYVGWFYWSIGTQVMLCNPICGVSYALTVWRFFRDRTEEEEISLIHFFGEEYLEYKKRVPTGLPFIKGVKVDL

CCCCCCCCn1cc(CC(N)=O)c2cc(-c3cccc(C)c3)ccc21 [Cysmethynil, 2-[5-(3-methylphenyl)-1-octyl-1H-indolo-3-yl]acetamide, reference compound]
Ki (Icmt; read-out: Ki of initial reversible complex with the enzyme): 2390 nM
Ki (Icmt; time dependent inhibition, read-out: overall dissociation constant of EI* complex): 110 nM
IC50 [1]: 22.5 µM
Clearance ([2]; Balb/c mice, 20 mg/kg IP): 0.395 mL/min/kg
T1/2 [2, 7]: 1.55 h
Volume of Distribution [2, 7]: 0.0529 L/kg
Volume of Distribution ([2]; Balb/c mice, 20 mg/kg IP, listed as cysmethynil, 20 mg/kg): 0.053 L/kg
Clearance ([2]; Balb/c mice, 100 mg/kg IP): 0.217 mL/min/kg
Volume of Distribution ([2]; Balb/c mice, 100 mg/kg IP): 0.0799 L/kg
detection in plasma at late time points ([2]; Balb/c mice): could not be detected in plasma beyond this time
half-life ([2]; ip, 20 mg/kg, Balb/c mice, 20 mg/kg IP, read-out: T1/2 (converted)): 1.6 h
half-life ([2]; ip, 100 mg/kg, Balb/c mice, 100 mg/kg IP, read-out: T1/2 (converted)): 4.3 h
AUC ([2]; Balb/c mice, 20 mg/kg IP): 843 µg·h/mL
Tmax ([2]; Balb/c mice, 20 mg/kg IP): 0.75 h
AUC ([2]; Balb/c mice, 100 mg/kg IP): 7690 µg·h/mL
Tmax ([2]; Balb/c mice, 100 mg/kg IP): 0.75 h
Cmax ([2]; Balb/c mice, 20 mg/kg IP): 210 µg/mL
Cmax ([2]; Balb/c mice, 100 mg/kg IP): 1160 µg/mL
effect on cell cycle distribution (PC3 cells [3]): the changes in G1/G2 cell populations were not statistically significant
% Cells in G1 phase (PC3 cells [3]; 12.5 μM): 53.0 (2) %
% Cells in G2 phase (PC3 cells [3]; 12.5 μM): 27.87 (2) %
% Cells in G1 phase (PC3 cells [3]; 17.5 μM): 51.83 (2) %
% Cells in G2 phase (PC3 cells [3]; 17.5 μM): 26.85 (12.28, 3) %
% Cells in G1 phase (PC3 cells [3]; 20.0 μM): 54.85 ( 2) %
% Cells in G2 phase (PC3 cells [3]; 20.0 μM): 32.07 (2) %

CCCCCCCCn1cc(CN(CC)CC)c2cc(-c3cnc(N)nc3)ccc21 [Compound 8-12, 5-(3-Diethylaminomethyl-1-octyl-1H-indol-5-yl)-pyrimidin-2-ylamine]
LC3 aggregation (immunofluorescence) (PC3 cells [4]): punctate LC3-positive (red) vacuoles were observed at 2.5 and 5 μM
IC50 [5]: 1600 to 2600 nM
IC50 [1]: 1.6 µM
time to peak concentration in plasma ([2]; 10 mg/kg or 25 mg/kg IP): within an hour
Clearance ([2]; Balb/c mice, 10 mg/kg IP): 6.67 mL/min/kg
Clearance ([2]; Balb/c mice, 25 mg/kg IP): 10.1 mL/min/kg
Volume of Distribution ([2]; Balb/c mice, 25 mg/kg IP): 1.185 L/kg
detection in plasma at late time points ([2]; Balb/c mice): not detected after 24 h and 48 h
half-life ([2]; intraperitoneal, summary, treated mice, read-out: half life): < 1 h
half-life ([2]; ip, 10 mg/kg or 25 mg/kg IP, estimated, read-out: half life): < 3 h
half-life ([2]; ip, 10 mg/kg, Balb/c mice, 10 mg/kg IP, read-out: T1/2 (converted)): 1.25 h
half-life ([2]; ip, 25 mg/kg, Balb/c mice, 25 mg/kg IP, read-out: T1/2 (converted)): 1.36 h
AUC ([2]; Balb/c mice, 10 mg/kg IP): 24.6 µg·h/mL
Tmax ([2]; Balb/c mice, 10 mg/kg IP): 0.25 h
AUC ([2]; Balb/c mice, 25 mg/kg IP): 40.8 µg·h/mL
Tmax ([2]; Balb/c mice, 25 mg/kg IP): 0.75 h
Cmax ([2]; Balb/c mice, 10 mg/kg IP): 17.9 µg/mL
Cmax ([2]; Balb/c mice, 25 mg/kg IP): 17.4 µg/mL
Papp at 16 h [6]: 14.2 ×10⁻⁶ cm/s
PAMPA Pe (×10^−6 cm/s) ([6]; pH 7.4, 16 h agitation, 1% lecithin in dodecane): 14.2 ×10^−6 cm/s and 14.2 (±1.4) ×10^−6 cm/s
effect on cell cycle distribution (PC3 cells [3]): increased cells in the G1 phase while decreasing cells in G2 phase
% Cells in G1 phase (PC3 cells [3]; 0.8 μM): 52.92 (2) %
% Cells in G2 phase (PC3 cells [3]; 0.8 μM): 24.22 (2) %
% Cells in G1 phase (PC3 cells [3]; 1.0 μM): 59.98 (2)^3%
% Cells in G2 phase (PC3 cells [3]; 1.0 μM): 26.99 (2.77, 3) %
% Cells in G1 phase (PC3 cells [3]; 2.0 μM): 66.45 (2)^3%
% Cells in G2 phase (PC3 cells [3]; 2.0 μM): 11.20 (2)^3%

CCCCCCCCn1c2c(c3cc(-c4cnc(N)nc4)ccc31)CN(C)CC2 [Compound 305, 8-(2′-amino-pyrimidin-5′-yl)-2-methyl-5-n-octyl-1,2,3,4-tetrahydropyrido[4,3-b]indole]
Papp at 16 h [6]: 19.7 ± 0.56 ×10⁻⁶ cm/s
